Experimental data as given in patent US20250304952A1, “DNA ELEMENT RESPONSIVE TO EXTRACHROMOSOMAL DNA IN CANCER CELLS” (The Board of Trustees of the Leland Stanford Junior …, priority 2021, published 2025).

Assays:
ecDNA hubs in COLO320-DM = assay: ecDNA clustering by interphase DNA FISH, autocorrelation g(r); type: cell-based, human; details: 6 hours
Excerpt: The Oligopaint FISH probe libraries were constructed as described previously 51 Each oligo consists of a 40 nucleotide (nt) homology to the hg19 genome assemble designed from the algorithm developed from the laboratory of Dr. Ting Wu (https://oligopaints.hms.harvard.edu/). Each library subpool consists of a unique sets of primer pairs for orthogonal PCR amplification and a 20 nt T7 promoter sequence for in vitro transcription and a 20 nt region for reverse transcription. Individual Oligopaint probes were generated by PCR amplification, in vitro transcription, and reverse transcription, in which ssDNA oligos conjugated with ATTO488 and ATTO647 fluorophores were introduced during the reverse transcription step. The Oligopaint covered genomic regions (hg19) used in this study are as follows: chr8: 116967673-118566852 (hg19_COLO_nonecDNA_1.5Mbp), chr8: 127435083-129017969 (hg19_COLO_ecDNA_1.5Mbp), chr8: 128729248-128831223 (hg19_PC3_ecDNA1_100 kb). A ssDNA oligo pool was ordered and synthesized from Twist Bioscience (San Francisco, CA). 15 mm #1.5 round glass coverslips (Electron Microscopy Sciences) were pre-rinsed with anhydrous ethanol for 5 min, air dried, and coated with L-poly lysine solution (100 μg/mL) for at least 2 hours. Fully dissociated ColoDM320 or PC3 cells were seeded onto the coverslips and recovered for at least 6 hours before experiments. Cells were fixed with 4% (v/v) methanol free paraformaldehyde diluted in 1×PBS at room temperature for 10 min. Then cells were washed 2× with 1×PBS and permeabilized in 0.5% Triton-X100 in 1×PBS for 30 min. After 2× wash in 1×PBS, cells were treated with 0.1M HCl for 5 min, followed by 3× washes with 2×SSC and 30 min incubation in 2×SSC+0.1% Tween20 (2×SSCT)+50% (v/v) formamide (EMD Millipore, cat #S4117). […]
To analyze the clustering of ecDNAs, we applied the autocorrelation function as described previously58 in Matlab (2019). g(r) estimates the probability of detecting another ecDNA signal at increasing distances from the viewpoint of an index ecDNA signal and is equal to 1 for a uniform, random distribution. Specifically, the pair auto-correlation function g(r^→) was calculated by the fast Fourier transform (FFT) method described by the equations below.
N(r^→) is the auto-correlation of a mask matrix that has the value of 1 inside the nucleus used for normalization. […] Autocorrelation functions were calculated first by converting the Cartesian coordinates to polar coordinates by Matlab cart2pol( ) function, binning by radius and by averaging within the assigned bins. […]

[1] = test system: MYC mRNA in COLO320-DM cells; assay: MYC RNA measured by RT-qPCR in COLO320-DM; type: cell-based, human; details: 500 nM, 6 hours
Procedure: Cells were then treated for 6 hours with 500 nM JQ1 in DMSO unless otherwise indicated (Sigma-Aldrich SML1524) or an equivalent volume of DMSO.
RNA was extracted using RNeasy Plus mini Kit (QIAGEN 74136). Purified RNA was quantified by Nanodrop (Thermo Fisher). For RT-qPCR, 50 ng of RNA, 1× Brilliant II qRT-PCR mastermix with 1 μL RT/RNase block (Agilent 600825), and 200 nM forward and reverse primer were used. Each Ct value was measured using Lightcycler 480 (Roche) and each mean dCt was averaged from duplicate qRT-PCR reaction and performed in biological triplicate. Relative MYC RNA level (RT-qPCR primers MYC_exon3_fw and MYC_exon3_rv) was calculated by ddCt method compared to 18S and GAPDH controls (RT-qPCR primers GAPDH_fw, GAPDH_rv, 18S_fw, 18S_rv). P values were calculated using a Student's t-test by comparing the relative fold change of biological triplicates.
Approximately 0.6×10^6 COLO320-DM or COLO-320-HSR cells were plated in 6 well plates and cultured under standard conditions for 24 hours. Cells were then treated for 6 hours with one of the following: 500 nM JQ1 (Sigma-Aldrich SML1524), 500 nM MS645 (Sigma Aldrich SML2549), 1 μM THZ-1 (Selleck chemicals S7549), 20 μM SGC-SCP30 (Selleck chemicals S7256), 10 μM OICR-9429 (Selleck chemicals S7833), 50 μM MI-3 (Selleck chemicals S7619), 2 μM trichostatin A (Selleck chemicals S1045), or DMSO. […]

In the case of alpha-amanitin, the “ecDNA hub clustering (interphase DNA FISH, autocorrelation g(r))” value (“ecDNA hub clustering” below) (ecDNA hubs in COLO320-DM; 100 μg/mL alpha-amanitin) is reported as “did not affect ecDNA hubs”.
`Cc1sc2c(c1C)C(c1ccc(Cl)cc1)=N[C@@H](CC(=O)NCCCCCCCCCCNC(=O)C[C@@H]1N=C(c3ccc(Cl)cc3)c3c(sc(C)c3C)-n3c(C)nnc31)c1nnc(C)n1-2` [MS645] was tested, and the “ecDNA hub clustering” value (ecDNA hubs in COLO320-DM; 500 nM) was “reduced ecDNA transcription and clustering similar to JQ1” and the “MYC mRNA level” value [1] was “reduced ecDNA transcription and clustering similar to JQ1”.
In the case of `OCCCCCCO` [1,6-hexanediol], the “ecDNA hub clustering” value (ecDNA hubs in COLO320-DM; 1% 1,6-hexanediol) is reported as “did not affect ecDNA hubs”.
